Results on 13 compounds are retold here after patent publication US7205403B2, “8-Heteroaryl xanthine adenosine A2B receptor antagonists” (King Pharmaceuticals Research and Development, Inc., priority 2002, dated 2007).

“Also recorded” adds a separate entry of the source. Read-outs that look alike come from different tables or passages of the source. Where only a bound is given, the exact number is not on record here.

Test [1] addresses T1, human A2A adenosine receptor (Homo sapiens, UniProt P29274).
T1 construct: expressed in transfected cells; host or cells: CHO cells (membranes)
The experiment in a line: [3H]ZM241385 binding to human A2A receptors expressed in CHO cells. To be noted: for Ki, [3H]ZM241385 binding to human A2A receptors expressed in CHO cells: geometric mean (95% confidence interval), >1000 = no appreciable binding; for Ki: read-out: Ki, [3H]ZM241385 binding to human A2A receptors expressed in CHO cells. An outline of the steps: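 Membranes from adherent CHO cells, resuspended in 50 mM Tris HCl with 10 mM MgCl2, pH 7.4. The inhibitory binding constant is reported.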

For test [2], the target named is T2, human A1 adenosine receptor (Homo sapiens, UniProt P30542).
T2 construct: expressed in transfected cells; host or cells: CHO cells (membranes)
T2 sequence (P30542 1-326): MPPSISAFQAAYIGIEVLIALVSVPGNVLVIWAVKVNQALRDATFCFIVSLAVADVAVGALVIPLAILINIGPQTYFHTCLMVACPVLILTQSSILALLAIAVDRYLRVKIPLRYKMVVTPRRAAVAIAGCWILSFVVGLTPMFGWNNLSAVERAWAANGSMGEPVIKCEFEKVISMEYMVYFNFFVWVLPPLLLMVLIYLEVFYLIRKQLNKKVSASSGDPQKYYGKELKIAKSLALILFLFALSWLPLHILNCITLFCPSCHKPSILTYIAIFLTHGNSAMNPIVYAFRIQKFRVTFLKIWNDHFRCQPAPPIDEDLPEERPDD
Description: [3H]DPCPX binding to human A1 receptors expressed in CHO cells. The method, then: The cells were grown adherently and maintained in Dulbecco's modified Eagle's medium with nutrient mixture F12 without nucleosides at 37° C. in 5% CO2/95% air. The cells were washed with phosphate-buffered saline and scraped off flasks in ice cold hypotonic buffer ([…] Tris HCl, 2 mM EDTA, pH 7.4). The cell suspension was homogenized with a Polytron and the homogenate was centrifuged for 30 minutes at 48,000 g. The resultant membrane pellet was re-suspended in 50 mM Tris HCl buffer at pH 7.4 for A1 adenosine receptors; in 50 mM Tris HCl 10 mM MgCl, at pH 7.4 for A2A adenosine receptors; in 50 mM Tris HCl, 10 mM MgCl2, 1 mM EDTA, at pH 7.4 for A3 adenosine receptors and were utilized for binding assays.
Displacement experiments were performed for 120 minutes at 25° C. in 200 μl of buffer containing 1 nM ^3H]-DPCPX 20 μl of diluted membranes (50 μg of protein/assay) and at least 6 to 8 different concentrations of examined compounds.
The filter bound radioactivity was counted on Top Count (efficiency 57%) with Micro-Scint 20.
The filter bound radioactivity was counted on a Top Count brand Microplate Scintillation Counter (efficiency 57%) with Micro-Scint 20. […] Inhibitory binding constant. […] Results and Discussion

Test [3] has as its target T3, human A3 adenosine receptor (Homo sapiens, UniProt P0DMS8).
T3 construct: expressed in transfected cells; host or cells: CHO cells (membranes)
T3 sequence (P0DMS8 1-318): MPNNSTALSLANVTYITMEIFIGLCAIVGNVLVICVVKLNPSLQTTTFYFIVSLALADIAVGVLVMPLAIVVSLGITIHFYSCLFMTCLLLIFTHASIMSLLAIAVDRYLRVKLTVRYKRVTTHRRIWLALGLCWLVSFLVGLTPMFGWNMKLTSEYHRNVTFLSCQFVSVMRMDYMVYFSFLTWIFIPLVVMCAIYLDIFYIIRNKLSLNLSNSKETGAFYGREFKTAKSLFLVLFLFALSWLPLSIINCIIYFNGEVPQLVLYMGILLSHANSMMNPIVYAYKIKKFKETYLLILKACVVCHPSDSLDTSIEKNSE
Description: [3H]MRE3008F20 binding to human A3 receptors expressed in CHO cells. To be noted: for Ki, [3H]MRE3008F20 binding to human A3 receptors expressed in CHO cells: geometric mean (95% confidence interval), >1000 = no appreciable binding. An outline of the steps: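 CHO cell membranes (50 μg protein) competed against 1 nM [3H]-MRE3008-F20 in 50 mM Tris HCl, MgCl2, pH 7.4, with 6–8 ligand concentrations in duplicate, 120 minutes at 4° C. Filter-bound radioactivity counted by scintillation; inhibitory binding constants derived.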

The target of test [4] is T4, human A2B adenosine receptor (Homo sapiens, UniProt P29275).
T4 sequence (P29275 1-332): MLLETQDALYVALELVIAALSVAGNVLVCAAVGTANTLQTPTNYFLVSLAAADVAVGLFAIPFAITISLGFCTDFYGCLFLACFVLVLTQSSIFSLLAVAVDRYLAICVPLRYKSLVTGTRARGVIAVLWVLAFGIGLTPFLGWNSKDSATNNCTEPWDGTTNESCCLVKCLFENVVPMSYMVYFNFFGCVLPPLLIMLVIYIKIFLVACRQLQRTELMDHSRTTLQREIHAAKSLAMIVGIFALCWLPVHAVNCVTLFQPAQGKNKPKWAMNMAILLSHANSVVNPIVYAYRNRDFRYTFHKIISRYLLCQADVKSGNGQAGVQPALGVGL
The experiment in a line: [3H]DPCPX binding to human A2B receptors expressed in HEK293 cells. Also noted: host or cells: HEK 293 cells (membranes). To be noted: geometric mean (95% confidence interval); >1000 = no appreciable binding; read-out: Ki, [3H]DPCPX binding to human A2B receptors expressed in HEK293 cells. Summed up:
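Membranes (20 μg protein) from HEK293 cells expressing recombinant human A2B receptor were incubated 60 min at 25° C with 40 nM [3H]-DPCPX and 6–8 compound concentrations. Buffer was Tris-HCl with MgCl2, 1 mM EDTA, 0.1 mM benzamidine and 2 IU/ml adenosine deaminase, pH 7.4. Filter-bound radioactivity gave the inhibitory binding constant.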

Where [5] appears, read: geometric mean (95% confidence interval), >1000 = no appreciable binding.

What is called Ki is the equilibrium dissociation constant of an inhibitor or competing ligand from its target.

T1 sequence (P29274 whole entry): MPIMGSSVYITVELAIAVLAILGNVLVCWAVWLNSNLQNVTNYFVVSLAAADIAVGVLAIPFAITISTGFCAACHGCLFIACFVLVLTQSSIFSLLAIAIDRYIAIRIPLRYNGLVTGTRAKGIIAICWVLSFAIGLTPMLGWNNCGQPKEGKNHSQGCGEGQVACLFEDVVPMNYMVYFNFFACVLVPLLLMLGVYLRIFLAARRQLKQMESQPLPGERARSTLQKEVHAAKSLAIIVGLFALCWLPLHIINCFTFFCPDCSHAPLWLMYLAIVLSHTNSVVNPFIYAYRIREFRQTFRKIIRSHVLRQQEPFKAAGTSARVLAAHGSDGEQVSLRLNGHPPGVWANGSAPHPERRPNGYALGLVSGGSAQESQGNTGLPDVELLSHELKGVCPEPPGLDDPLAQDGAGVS

Take `CCCn1c(=O)c2[nH]c(-c3cc(NC(=O)Cc4ccc([N+](=O)[O-])cc4)nn3C)nc2n(CCC)c1=O` [AS15, N-[5-(2,6-dioxo-1,3-dipropyl-2,3,6,9-tetrahydro-1H-purin-8-yl)-1-methyl-1H-pyrazol-3-yl]-2-(4-nitrophenyl)acetamide]: the “Ki, [3H]ZM241385 binding to human A2A receptors expressed in CHO cells” value in test [1] is listed as “no appreciable affinity; also recorded: without significant binding”. Besides, the Ki was over 1 µM in test [1], over 1 µM in test [3] and 0.078 µM in test [4]. Besides, the “Ki, [3H]DPCPX binding to human A1 receptors expressed in CHO cells” value in test [2] (setting [5]) is on record as “no appreciable affinity; also recorded: without significant binding”. Further, the “Ki, [3H]MRE3008F20 binding to human A3 receptors expressed in CHO cells” value in test [3] is listed as “no appreciable affinity; also recorded: without significant binding”.
For `CCCn1c(=O)c2[nH]c(-c3cc(NC(=O)COc4ccc(Cl)cc4)nn3C)nc2n(CCC)c1=O` [AS21, 2-(4-chlorophenoxy)-N-[5-(1,3-dipropyl-2,6-dioxo-2,3,6,7-tetrahydro-1H-purin-8-yl)-1-methyl-1H-pyrazol-3-yl]acetamide], the Ki in test [1], in test [2], in test [3] and in test [4] was over 1 µM throughout.
For the compound `CC(C)Cn1c(=O)c2[nH]c(-c3cc(OCC(=O)Nc4ccc(Br)cc4)nn3C)nc2n(CC(C)C)c1=O` [AS67, 2-{[5-(1,3-diisobutyl-2,6-dioxo-2,3,6,9-tetrahydro-1H-purin-8-yl)-1-methyl-1H-pyrazol-3-yl]oxy}-N-(4-bromophenyl)acetamide], the Ki in test [1] was over 1 µM; in test [2] (setting [5]), 2.43 µM; in test [3], over 1 µM; in test [4], 0.132 µM.
For `CCCn1c(=O)c2[nH]c(-c3ccc(O)nc3)nc2n(CCC)c1=O` [AS103, 1,3-di-n-propyl-8-(2-hydroxypyridin-5-yl)-xanthine], the Ki in test [1] was 0.606 µM; in test [2] it was 0.081 µM; in test [3] it was 0.116 µM; in test [4], 0.0049 µM.
`CCCn1c(=O)c2[nH]c(-c3cc(NC(=O)Cc4ccc(OC)cc4)nn3C)nc2n(CCC)c1=O` [AS23, 2-(4-methoxyphenyl)-N-[5-(2,6-dioxo-1,3-dipropyl-2,3,6,9-tetrahydro-1H-purin-8-yl)-1-methyl-1H-pyrazol-3-yl]acetamide]: the Ki was over 1 µM in test [1], 0.85 µM in test [2] (setting [5]), over 1 µM in test [3] and 0.1 µM in test [4].
For `CCCn1c(=O)c2[nH]c(-c3cc(NC(=O)Nc4cccc(OC)c4)nn3C)nc2n(CCC)c1=O` [AS55, N-[5-(2,6-dioxo-1,3-dipropyl-2,3,6,7-tetrahydro-1H-purin-8-yl)-1-methyl-1H-pyrazol-3-yl]-N'-(3-methoxyphenyl)urea], the Ki in test [1] was over 1 µM; in test [2] (setting [5]), 1.99 µM; in test [3] it was over 1 µM; in test [4] it was 0.09 µM.
For the compound `CCCn1c(=O)c2nc(-c3cc(OCC(=O)Nc4ccc(Br)cc4)n(C)n3)[nH]c2n(CCC)c1=O` [AS60, N-(4-bromophenyl)-2-{[3-(2,6-dioxo-1,3-dipropyl-2,3,6,9-tetrahydro-1H-purin-8-yl)-1-methyl-1H-pyrazol-5-yl]oxy}acetamide], the Ki in test [1] is over 1 µM; in test [2] (setting [5]), 0.168 µM; in test [3], over 1 µM; in test [4], 0.093 µM.
Take `CCCn1c(=O)c2[nH]c(-c3cc(NC(=O)COc4ccc(Cl)cc4Cl)nn3C)nc2n(CCC)c1=O` [AS12, 2-(2,4-dichlorophenoxy)-N-[5-(2,6-dioxo-1,3-dipropyl-2,3,6,7-tetrahydro-1H-purin-8-yl)-1-methyl-1H-pyrazol-3-yl]acetamide]: the inhibitory constant (Ki) in test [1], in test [2], in test [3] and in test [4] was over 1 µM throughout.
On to `CCCn1c(=O)c2[nH]c(-c3cc(NC(=O)Cc4cccc(OC)c4)nn3C)nc2n(CCC)c1=O` [AS13, 2-(3-methoxyphenyl)-N-[5-(2,6-dioxo-1,3-dipropyl-2,3,6,9-tetrahydro-1H-purin-8-yl)-1-methyl-1H-pyrazol-3-yl]acetamide], for which, in test [1], the “Ki, [3H]ZM241385 binding to human A2A receptors expressed in CHO cells” value was “no appreciable affinity; also recorded: without significant binding” and the Ki is over 1 µM. For the same compound, the “Ki, [3H]DPCPX binding to human A1 receptors expressed in CHO cells” value in test [2] (setting [5]) was “no appreciable affinity; also recorded: without significant binding”. Moreover, in test [3], the Ki is over 1 µM and the “Ki, [3H]MRE3008F20 binding to human A3 receptors expressed in CHO cells” value is on record as “no appreciable affinity; also recorded: without significant binding”. For the same compound, the Ki in test [4] is 0.096 µM.
For `CCCn1c(=O)c2c(nc(/C=C/c3cc(COC(=O)c4ccccc4)on3)n2C)n(CCC)c1=O` [AS20, {3-[(E)-2-(1,3-dipropyl-7-methyl-2,6-dioxo-2,3,6,7-tetrahydro-1H-purin-8-yl)vinyl]isoxazol-5-yl}methyl benzoate], the Ki in test [1], in test [2], in test [3] and in test [4] was over 1 µM in each case.
Consider `CCCn1c(=O)c2[nH]c(-c3cc([N+](=O)[O-])cn3C)nc2n(CCC)c1=O` [AS7, 8-(1-methyl-4-nitro-1H-pyrrol-2-yl)-1,3-dipropyl-3,7-dihydro-1H-purine-2,6-dione], for which the Ki in test [1] is over 1 µM; in test [2], 0.122 µM; in test [3], over 1 µM; in test [4] it was 0.342 µM.
As for `CCCn1c(=O)c2[nH]c(-c3cc(NC(=O)CCCNC(=O)OC(C)(C)C)nn3C)nc2n(CCC)c1=O` [AS9, tert-butyl 4-{[5-(2,6-dioxo-1,3-dipropyl-2,3,6,7-tetrahydro-1H-purin-8-yl)-1-methyl-1H-pyrazol-3-yl]amino}-4-oxobutylcarbamate], the Ki in test [1], in test [2], in test [3] and in test [4] was over 1 µM throughout.
`CC(C)Cn1c(=O)c2[nH]c(-c3cc(OCC(=O)Nc4ccc(F)cc4)n(C)n3)nc2n(CC(C)C)c1=O` [AS62, 2-{[3-(1,3-diisobutyl-2,6-dioxo-2,3,6,9-tetrahydro-1H-purin-8-yl)-1-methyl-1H-pyrazol-5-yl]oxy}-N-(4-fluorophenyl)acetamide]: the Ki in test [1] is over 1 µM; in test [2] (setting [5]), 0.072 µM; in test [3], over 1 µM; in test [4], 0.207 µM.
